Test results published in patent US8063219B2, “Nitrogenous heterocyclic compounds, preparation thereof and use thereof as antibacterial medicaments” (Novexel, priority 2007, dated 2011).
In brackets after ≈: the same amount, converted by molar mass.

Assays:
Assay in all cases: In vitro activity, dilution method in liquid medium (MIC)
Assay type in all cases: cell-based
[1] = test system: Pseudomonas aeruginosa strain resisting via porin mutations; settings: for MIC (μg/ml) 24 h: Resisting via porin mutations [1 strain]
Procedure: (§1) A series of tubes are prepared in which equal quantities of sterile nutrient medium are placed, and increasing quantities of the product being studied are placed in each tube then each tube is plated with a bacterial strain. After 24 hours incubation in an oven at 37° C., the growth inhibition is assessed by transillumination, which makes it possible to determine the minimum inhibition concentrations (MIC) expressed in μg/ml.

[2] = test system: Pseudomonas aeruginosa strains resisting via β-lactamases; settings: Resisting via β-lactamases [8 strains]
Procedure: as §1

[3] = test system: Pseudomonas aeruginosa PA01 wild type
Procedure: as §1

[4] = test system: Pseudomonas aeruginosa strains resisting via efflux pumps
Procedure: as §1

[5] = test system: Pseudomonas aeruginosa 1771 strains wild type; settings: for Activity against Pseudomonas aeruginosa (in words): in vitro
Procedure: as §1
Tests are carried out in this way with the products of Examples 1 and 2 and compared with the products of Examples and 19 of application WO 02/100860.

[6] = 1771 strains wild type, 24 h incubation at 37° C.
[7] = Pseudomonas aeruginosa, 24 h, read-out: MIC (μg/ml) 24 h
[8] = Resisting via efflux pumps, second set [5 strains]

Row | Compound | MIC (μg/ml) 24 h [1] [µg/mL] | MIC (μg/ml) 24 h [2] [µg/mL] | MIC (μg/ml) 24 h [3] [µg/mL] | MIC (μg/ml) 24 h ([4]; Resisting via efflux pumps [11/5 strains], set not given) | MIC (μg/ml) 24 h [5, 6] [µg/mL] | MIC [1, 7] [µg/mL] | MIC [2, 7] [µg/mL] | MIC ([3]; Pseudomonas aeruginosa, PA01WILDTYPE, 24 h, read-out: MIC (μg/ml) 24 h) [µg/mL] | MIC [4, 7] [µg/mL] | MIC ([5]; Pseudomonas aeruginosa, 1771 strains wild type, 24 h incubation at 37° C., read-out: MIC (μg/ml) 24 h) [µg/mL] | MIC (μg/ml) 24 h [4, 8] | Activity against Pseudomonas aeruginosa (in words) [5] | MIC (μg/ml) 24 h ([4]; Resisting via efflux pumps, first set [11 strains]) [µg⁻¹ mL⁻¹]
1 | CC(C)(O/N=C(\C(=O)N[C@@H]1C(=O)N2C(C(=O)[O-])=C(C[n+]3ccccc3)CS[C@H]12)c1csc(N)n1)C(=O)O [Ceftazidine, reference compound] | 2 (≈ 3.66 µM) | 2 to 32 | 2 (≈ 3.66 µM) | <=0.03-8 μg/ml | 1 (≈ 1.83 µM) | – | – | – | – | – | – | – | –
2 | C[C@@H](O)[C@H]1C(=O)N2C(C(=O)O)=C(SCCN=CN)C[C@H]12 [Imipenem, reference compound] | – | – | – | – | – | 16 (≈ 53.4 µM) | 2 to 32 (≈ 6.68 to 107 µM) | 1 (≈ 3.34 µM) | 0.25 to 4 (≈ 0.835 to 13.4 µM) | 1 (≈ 3.34 µM) | – | – | –
3 | The sodium and trifluoroacetate salt of trans[[8-(amino-methyl)-4,8-dihydro-6-oxo-5-(sulphooxy)-4,7-methano-7H-pyrazolo[3,4-e][1,3]diazepin-6(5H)-one [Ex 2] | – | 0.25 to 1 | – | – | 0.25 | – | – | – | – | – | —/0.5-1 μg/ml | very active | –
4 | sodium and trifluoroacetate salts of trans[[8-(aminomethyl)-4,8-dihydro-1-methyl-6-oxo-5-(sulfooxy)-4,7-methano-7H-pyrazolo[3,4-e][1,3]diazepin-6(5H)-one [Ex 1] | 2 | 1 to 2 | 1 | – | 0.12 | – | – | – | – | – | 0.25 to 0.5 µg/mL | very active | 0.5 to 4
